Results published in ChEMBL document CHEMBL3407449, “Synthesis, anticancer and radiosensitizing evaluation of some novel sulfonamide derivatives” (Eur J Med Chem, 2015).

Assays:
HepG2 [1] = experiment: Cytotoxicity against human HepG2 cells assessed as surviving fraction ratio at 12.5 uM after 48 hrs by SRB assay relative to control; type: functional
HepG2 [2] = experiment: Cytotoxicity against human HepG2 cells assessed as surviving fraction ratio at 50 uM after 48 hrs by SRB assay relative to control; type: functional
HepG2 [3] = experiment: Cytotoxicity against human HepG2 cells assessed as surviving fraction ratio after 48 hrs by SRB assay relative to control; type: functional, cell-based
HepG2 [4] = experiment: Cytotoxicity against human HepG2 cells assessed as surviving fraction ratio at 25 uM after 48 hrs by SRB assay relative to control; type: functional
HepG2 [5] = experiment: Cytotoxicity against human HepG2 cells assessed as surviving fraction ratio at 5 uM after 48 hrs by SRB assay relative to control; type: functional
HepG2 [6] = experiment: Cytotoxicity against human HepG2 cells assessed as surviving fraction ratio incubated for 2 hrs prior to 8Gy gamma-irradiation measured after 48 hrs by ELISA reader relative to control; type: functional, cell-based; details: HepG2, light or radiation study
HepG2 [7] = experiment: Cytotoxicity against human HepG2 cells assessed as surviving fraction ratio at 50 uM incubated for 2 hrs prior to 8Gy gamma-irradiation measured after 48 hrs by ELISA reader relative to control; type: functional
HepG2 [8] = experiment: Cytotoxicity against human HepG2 cells assessed as surviving fraction ratio at 5 uM incubated for 2 hrs prior to 8Gy gamma-irradiation measured after 48 hrs by ELISA reader relative to control; type: functional
HepG2 [9] = experiment: Cytotoxicity against human HepG2 cells assessed as surviving fraction ratio at 25 uM incubated for 2 hrs prior to 8Gy gamma-irradiation measured after 48 hrs by ELISA reader relative to control; type: functional
HepG2 [10] = experiment: Cytotoxicity against human HepG2 cells assessed as surviving fraction ratio at 12.5 uM incubated for 2 hrs prior to 8Gy gamma-irradiation measured after 48 hrs by ELISA reader relative to control; type: functional
[11] = Homo sapiens, HepG2, 48 h, read-out: IC50

| Compound | Ratio (HepG2 [1]) | Ratio (HepG2 [2]) | IC50 (HepG2 [3]; hepg2) | Ratio (HepG2 [4]) | Ratio (HepG2 [5]) | IC50 (HepG2 [3]; [11]) [µM] | IC50 (HepG2 [6]) [µM] | Ratio (HepG2 [7]) | Ratio (HepG2 [8]) | Ratio (HepG2 [9]) | Ratio (HepG2 [10]) |
| --- | --- | --- | --- | --- | --- | --- | --- | --- | --- | --- | --- |
| Cc1ccc(S(=O)(=O)Nc2ccc(C(=O)/C=C/c3ccccc3)cc2)cc1 | 2.032 | 0.529 | Not Active | 1.017 | 2.385 | – | – | – | – | – | – |
| CC(=O)c1ccc(NS(=O)(=O)c2ccc(C)cc2)cc1 | 0.726 | 0.367 | – | 0.547 | 1.048 | 35.8 | – | – | – | – | – |
| CC(=O)c1ccc(NS(=O)(=O)c2ccccc2)cc1 | 0.719 | 0.417 | – | 0.464 | 0.891 | 35.3 | – | – | – | – | – |
| Cc1ccc(S(=O)(=O)Nc2ccc(C(=O)/C=C/c3ccc([N+](=O)[O-])cc3)cc2)cc1 | 0.348 | 0.495 | – | 0.392 | 0.476 | 26 | 20.5 | 0.249 | 0.558 | 0.368 | 0.451 |
| C/C(=N\NC(=O)CC#N)c1ccc(NS(=O)(=O)c2ccccc2)cc1 | 0.778 | 0.242 | – | 0.361 | 0.881 | 28 | – | – | – | – | – |
| C/C(=N\NC(=O)CC#N)c1ccc(NS(=O)(=O)c2ccc(C)cc2)cc1 | 0.53 | 0.293 | – | 0.349 | 0.837 | 26 | – | – | – | – | – |
| C/C(=N/n1c(N)cc(N)c(C#N)c1=O)c1ccc(NS(=O)(=O)c2ccccc2)cc1 | 0.556 | 0.321 | – | 0.312 | 0.748 | 25.5 | 11.5 | 0.34 | 0.395 | 0.299 | 0.194 |
| C/C(=N\n1c(N)cc(N)c(C#N)c1=O)c1ccc(NS(=O)(=O)c2ccc(C)cc2)cc1 | 0.761 | 0.385 | – | 0.577 | 0.937 | 37 | – | – | – | – | – |
| C/C(=N\NC(=O)c1sc(N)c(C#N)c1N)c1ccc(NS(=O)(=O)c2ccccc2)cc1 | 0.456 | 0.274 | – | 0.239 | 0.869 | 23.3 | 18.3 | 0.322 | 0.526 | 0.253 | 0.386 |
| C/C(=N\NC(=O)c1sc(N)c(C#N)c1N)c1ccc(NS(=O)(=O)c2ccc(C)cc2)cc1 | 0.383 | 0.323 | – | 0.39 | 0.571 | 21.8 | 5.8 | 0.174 | 0.291 | 0.105 | 0.227 |
| C/C(=N/NC(=O)/C(C#N)=C/N(C)C)c1ccc(NS(=O)(=O)c2ccc(C)cc2)cc1 | 0.877 | 0.378 | – | 0.546 | 1.141 | 37.8 | – | – | – | – | – |
| C/C(=N/NC(=O)C(C#N)C(=S)S)c1ccc(NS(=O)(=O)c2ccc(C)cc2)cc1 (stereo not given) | 0.229 | 0.414 | – | 0.291 | 0.344 | 11 | 5 | 0.158 | 0.245 | 0.189 | 0.206 |
| C/C(=N/NC(=O)c1sc2c(c1N)CCCC2)c1ccc(NS(=O)(=O)c2ccc(C)cc2)cc1 | 0.528 | 0.277 | – | 0.331 | 0.868 | 25.5 | 20 | 0.229 | 0.521 | 0.329 | 0.524 |
| COc1ccc(-c2c(C#N)c(N)n(/N=C(/C)c3ccc(NS(=O)(=O)c4ccc(C)cc4)cc3)c(=O)c2C#N)cc1 | 0.696 | 0.375 | – | 0.363 | 0.984 | 31.8 | – | – | – | – | – |
| C/C(=N/n1c(N)c(C#N)c(-c2ccc([N+](=O)[O-])cc2)c(C#N)c1=O)c1ccc(NS(=O)(=O)c2ccc(C)cc2)cc1 | 0.635 | 0.408 | – | 0.331 | 0.951 | 31.5 | 23.5 | 0.352 | 0.439 | 0.345 | 0.603 |
| Cc1ccc(/C=C/C(=O)c2ccc(NS(=O)(=O)c3ccc(C)cc3)cc2)cc1 | 1.616 | 0.489 | – | 0.781 | 1.931 | 49.8 | – | – | – | – | – |
| Cc1ccc(S(=O)(=O)Nc2ccc(C(=O)/C=C/c3ccc(F)cc3)cc2)cc1 | 0.497 | 0.551 | – | 0.383 | 1.461 | 39.3 | – | – | – | – | – |
| Cc1ccc(S(=O)(=O)Nc2ccc(C(=O)/C=C/c3ccc(Cl)cc3)cc2)cc1 | 1.478 | 0.402 | – | 0.591 | 2.16 | 43.3 | – | – | – | – | – |
| Cc1ccc(S(=O)(=O)Nc2ccc(C(=O)/C=C/c3ccc(Br)cc3)cc2)cc1 | 0.505 | 0.445 | – | 0.43 | 0.584 | 30.3 | 26.8 | 0.408 | 0.591 | 0.394 | 0.471 |
| Cc1ccc(S(=O)(=O)Nc2ccc(C(/C=C/c3ccc([N+](=O)[O-])cc3)=N\O)cc2)cc1 | 1.769 | 0.632 | Not Active | 1.351 | 1.723 | – | – | – | – | – | – |
| Cc1ccc(S(=O)(=O)Nc2ccc(-c3cc(-c4ccc([N+](=O)[O-])cc4)[nH]n3)cc2)cc1 | 1.197 | 0.508 | – | 0.522 | 1.772 | 44.8 | – | – | – | – | – |
| Cc1ccc(S(=O)(=O)Nc2ccc(-c3cc(-c4ccc([N+](=O)[O-])cc4)n(-c4ccccc4)n3)cc2)cc1 | 1.841 | 0.536 | Not Active | 0.923 | 2.085 | – | – | – | – | – | – |
| Cc1ccc(S(=O)(=O)Nc2ccc(-c3cc(-c4ccc([N+](=O)[O-])cc4)n(C(N)=S)n3)cc2)cc1 | 1.759 | 0.5 | Not Active | 1.078 | 1.907 | – | – | – | – | – | – |
| Cc1ccc(S(=O)(=O)Nc2ccc(-c3cc(-c4ccc([N+](=O)[O-])cc4)n(C(=S)NN)n3)cc2)cc1 | 1.189 | 0.53 | – | 0.507 | 1.766 | 45.3 | – | – | – | – | – |
| Cc1ccc(S(=O)(=O)Nc2ccc(-c3cc(-c4ccc([N+](=O)[O-])cc4)[nH]c(=O)n3)cc2)cc1 | 0.95 | 0.481 | – | 0.732 | 1.619 | 46.3 | – | – | – | – | – |
| Cc1ccc(S(=O)(=O)Nc2ccc(-c3cc(-c4ccc([N+](=O)[O-])cc4)[nH]c(=S)n3)cc2)cc1 | 0.805 | 0.398 | – | 0.486 | 1.066 | 36.5 | – | – | – | – | – |
